Experimental findings from patent publication US12398111B2, “Triazine compounds and pharmaceutical use thereof” (Japan Tobacco Inc., priority 2014, dated 2025) are described below.

One test deals with T1, human mPGES-1 (Homo sapiens, UniProt O14684).
T1 construct: made in house; host or cells: FreeStyle CHO-S cells (Chinese hamster ovary), transient transfection with pcDNA3.1(+)/human mPGES-1; microsome fraction used
T1 sequence (O14684 1-152): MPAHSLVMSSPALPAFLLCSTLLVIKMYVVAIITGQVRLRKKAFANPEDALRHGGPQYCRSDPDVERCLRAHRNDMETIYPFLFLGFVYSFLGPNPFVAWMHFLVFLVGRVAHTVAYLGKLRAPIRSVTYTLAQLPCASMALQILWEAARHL
As to the kind of experiment: Evaluation of human mPGES-1 enzyme inhibitory activity (PGE2 measured by HTRF, microsome fraction of CHO-S cells expressing human mPGES-1). The format is biochemical. Conditions: IC50 value; microsome fraction of CHO-S cells expressing human mPGES-1, PGE2 by HTRF. An outline of the steps:
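Enzyme source: microsomes from CHO-S cells transfected with human mPGES-1 and cultured 48 hr, diluted to 5 μg/mL protein in reduced GSH (12.5 mmol/L KPB solution). Test articles were in 0.1 mol/L potassium phosphate pH 7.4, final DMSO 2% (v/v). PGE2 formed was quantified by HTRF.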
In general terms: TR-FRET usually uses a lanthanide donor and a delayed reading to cut background.

Test [1] deals with prostaglandins in guinea pig secondary aqueous humor. Put plainly: Effect on prostaglandin composition in guinea pig aqueous humor (instillation of 0.003% ophthalmic solution, LC/MS/MS). The format is in vivo, Hartley male guinea pig. Particulars: 24 hr after instillation of 0.003% ophthalmic solution. As to the method:
A test article was dissolved in saline containing 0.5% polysorbate80 (Fluka) and 0.003% ophthalmic solution (pH 7.0-8.0) was prepared. The test article was administered to Hartley male guinea pig by instillation of 20 μL thereof to one eye by using a micropipette. After instillation, the lacrimal part was lightly fixed by gently pressing the lower eyelid for about 15 seconds. The opposite eye was treated in the same manner. To the vehicle group was administered the medium (0.5% polysorbate-containing saline) by a method similar to that for the test article. After 23 hr from the instillation, Mydrin P (registered trade mark) 0.5% ophthalmic solution (Santen Pharmaceutical Co., Ltd., general name: tropicamide/phenylephrine hydrochloride) was dropwisely added by one drop to the both eyes of a guinea pig to cause mydriasis. The guinea pig was anesthetized with Escain (registered trade mark) inhalation anesthetics (Pfizer Inc., general name: isoflurane), the cornea of the both eyes was tapped with a 30G injection needle, and the leaked aqueous humor (primary aqueous humor) was collected. One hour later (24 hr after instillation), the guinea pig was anesthetized again with isoflurane, and the secondary aqueous humor was collected in the same manner. The concentration of prostaglandins in the secondary aqueous humor obtained from each group (4 guinea pigs, 8 eyes) was measured by the LC/MS/MS system (Ultra high performance liquid chromatography: Nexera (registered trademark) manufactured by Shimadzu Corporation, mass spectrometer: […]), and the concentration ratio of each prostaglandin concentration relative to the total of all prostaglandin concentrations was calculated.

For the compound `C[C@H](Oc1ccc(-c2nc(O)nc(-c3cc(CNC(=O)C(C)(C)C(F)(F)F)ccc3Cl)n2)cc1)C1CC1` [Example 1-184, N-(4-chloro-3-{4-[4-((S)-1-cyclopropylethoxy)phenyl]-6-hydroxy-1,3,5-triazin-2-yl}benzyl)-3,3,3-trifluoro-2,2-dimethylpropionamide], half-maximal inhibition against human mPGES-1 (IC50) required 1.9 nM. Besides, in test [1], the “6-keto-PGF1α (%)” value worked out at 21.2%, the “PGD2 (%)” value was 10.7%, the “PGE2 (%)” value is on record as 57% and the “PGF2α (%)” value was determined as 10.3%. Also, the “TXB2 (%)” value in test [1] is listed as 0.8%.
As to `CC(C)(C(=O)NCc1ccc(Cl)c(-c2nc(O)nc(-c3ccc(F)c(C4CC4)c3)n2)c1)C(F)(F)F` [Example 1-135, N-{4-chloro-3-[4-(3-cyclopropyl-4-fluorophenyl)-6-hydroxy-1,3,5-triazin-2-yl]benzyl}-3,3,3-trifluoro-2,2-dimethylpropionamide], the half-maximal inhibitory concentration (IC50) (as a rule, the midpoint of a concentration-inhibition curve) against human mPGES-1 was found to be 0.5 nM. In test [1], the “6-keto-PGF1α (%)” value is reported as 19.4%, the “PGD2 (%)” value stood at 10.9%, the “PGE2 (%)” value turned out to be 56.1% and the “PGF2α (%)” value was 12.7%. In addition, the “TXB2 (%)” value in test [1] was 0.9%.
On to `CC1(COc2ccc(-c3nc(O)nc(-c4cc(CNC(=O)C(C)(C)C(F)(F)F)ccc4Cl)n3)cc2)CC1` [Example 1-128, N-(4-chloro-3-{4-hydroxy-6-[4-(1-methylcyclopropylmethoxy)phenyl]-1,3,5-triazin-2-yl}benzyl)-3,3,3-trifluoro-2,2-dimethylpropionamide], for which the IC50 on human mPGES-1 stood at 1.3 nM. Also, in test [1], the “6-keto-PGF1α (%)” value is on record as 29.7%, the “PGD2 (%)” value was 19.3%, the “PGE2 (%)” value stood at 36.2% and the “PGF2α (%)” value was found to be 13.9%. Also, the “TXB2 (%)” value in test [1] came out at 0.8%.
On human mPGES-1, `Cc1ccc(-c2nc(O)nc(-c3cc(CNC(=O)C(C)(C)C(F)(F)F)ccc3Cl)n2)cc1F` [Example 1-81, N-{4-chloro-3-[4-(3-fluoro-4-methylphenyl)-6-hydroxy-1,3,5-triazin-2-yl]benzyl}-3,3,3-trifluoro-2,2-dimethylpropionamide] had an IC50 of 0.6 nM. Moreover, in test [1], the “6-keto-PGF1α (%)” value amounted to 15.7%, the “PGD2 (%)” value was 13.2%, the “PGE2 (%)” value is 60% and the “PGF2α (%)” value is recorded as 9.8%. The “TXB2 (%)” value in test [1] is 1.3%.
Compound `Cc1cccc(COc2cccc(C(F)(F)F)c2-c2nc(O)nc(-c3ccc(C#Cc4ccccc4)cc3)n2)n1.Cl` [Example 2-98, 4-[2-(6-methylpyridin-2-ylmethoxy)-6-trifluoromethylphenyl]-6-(4-phenylethynylphenyl)-1,3,5-triazin-2-ol hydrochloride] came in with an IC50 against human mPGES-1 of 3.7 nM. Besides, in test [1], the “6-keto-PGF1α (%)” value was determined as 27.3%, the “PGD2 (%)” value is listed as 20.1%, the “PGE2 (%)” value is on record as 37.8% and the “PGF2α (%)” value worked out at 14.8%. In addition, the “TXB2 (%)” value in test [1] worked out at 0%.
